Where no end group is shown, it is not given here. [ ]: non-standard residue; d: D form. hCys = N[C@@H](CCS)C(=O)O
How the values were obtained:
[1] = tested on: rat metastatic prostate carcinoma MatLyLu (MLL) cells; experiment: SU-ECM invasion assay, rat MatLyLu prostate carcinoma cells; type: cell-based; settings: 10% FCS, FIG. 8
Protocol: (§1) Adult Strongylocentrotus purpuratus sea urchins were obtained from Pacific BioMarine, and their embryos were cultured to the early pluteus stage in artificial sea water at 15° C. SU-ECM were prepared from them by treatment with nonionic detergent and strerilized by dilution in the appropriate media.
(§2) Cells were harvested by rinsing in Hanks' balanced salt solution, followed by brief treatment with 0.25% trypsin, 0.02% EDTA, and pelleting and resuspension in the appropriate medium with or without 5% FCS at a density of about 50,000 cells per ml. When appropriate, purified bovine plasma fibronectin (Sigma), purified 120 kDa chymotryptic fragment (Gibco BRL), PHSRN (SEQ ID NO:1) or PHSCN (SEQ ID NO:86) peptides (synthesized at the Biomedical Research Core Facilities of the University of Michigan), or GRGDSP (SEQ ID NO:83) or GRGESP (SEQ ID NO:84) peptides (Gibco BRL) were added to the resuspended cells prior to placement of the cells on SU-ECM. In each well of a plate used for an invasion assay, SU-ECM were placed in 0.5 ml of the appropriate medium, and 0.5 ml of the resuspended cells dropped on their exterior surfaces. Invasion assays were incubated 1 to 16 hours prior to assay. If some circumstances, invasion assays were fixed in phosphate-buffered saline (PBS) with 2% formaldehyde for 5 minutes at room temperature, then rinsed into PBS.
(§3) Invasion assays were coded and scored blindly by microscopic examination under phase contrast at 200- and 400-fold magnification. Each cell contacting an SU-ECM was scored for its position relative to the exterior or interior surfaces. A cell was judged to have invaded if it was located on an interior surface below the focal plane passing through the upper surface of the SU-ECM, but above the focal plane passing through its lower surface. The minimum viability of the cells in each assay was always ascertained at the time of assay by determining the fraction of spread, adherent cells on the bottom of each well scored.
(§4) An invasion frequency is defined as the fraction of cells in contact with basement membranes which were located in their interiors at the time of assay. Thus, an invasion frequency of 1 denotes invasion by 100% of the cells in contact with basement membranes. Invasion frequencies were determined multiple times for each cell type assayed. For each type of cell assayed the mean and standard deviation of the invasion frequencies were calculated.
The result of adding a varying concentration of the PHSCN (SEQ ID NO:86) peptide to PHSRN-induced (SEQ ID NO:1) MLL cells in serum free media is shown in FIG. 7B, where 100 ng per ml of PHSRN (SEQ ID NO:1) was used to induce invasion.
The procedure described in Example 10, was employed using SU-ECM substrates in 10% FCS and PHS(hC)N (SEQ ID NO:85) instead of PHSCN (SEQ ID NO:86). The result of adding varying concentrations of the PHS(hC)N (SEQ ID NO:85) peptide to serum-induced MLL cells indicates this peptide also has an inhibitory affect on cell invasion (see FIG. 8).

[2] = tested on: metastatic SUM-52 PE breast cancer cells; experiment: SU-ECM invasion assay, SUM-52 PE breast cancer cells; type: cell-based, human; settings: SUM-52 cells
Protocol: Human breast carcinoma cell lines SUM 52 PE and SUM 44 PE were originally cultured from the pleural effusions of patients with metastatic breast cancer; and SUM 102 was cultured from a primary, microinvasive breast carcinoma (Ethier, S. P., Mahack, M. L., Gullick, W. J., Frank, T. S., and Weber, B. L. Differential isolation of normal luminal mammary epithelial cells and breast cancer cells from primary and metastatic sites using selective media. Cancer Res. 53: 627-635).
as §1, §2, §3, §4
The method of Example 4 is employed, with the addition of varying concentrations of the PHSCN (SEQ ID NO:86) peptide.
Thus, the procedure in Example 4 provides a method for determining the inhibitory potential of the PHSCN (SEQ ID NO:86) peptide by comparing the number of cell invasions in the presence of the PHSCN (SEQ ID NO:86) peptide, with the number of cell invasions in the absence of the PHSCN (SEQ ID NO:86) peptide.

[3] = tested on: metastatic DU-145 prostate cancer cells; experiment: SU-ECM invasion assay, DU-145 prostate cancer cells; type: cell-based, human; settings: DU-145 cells
[4] = tested on: DU-145 metastatic prostate cancer cells; experiment: Invasion of fibronectin-depleted Matrigel by DU-145 cells; type: cell-based, human; settings: 0.5 μl/ml peptide added to gelatin-panned Matrigel, FIG. 3
Protocol: This example describes a purification approach for removal of plasma fibronectin (and/or cellular fibronectin) from a substrate (Matrigel). In this example, removal was attempted by successive panning on gelatin. Eight wells of 24-well plate were coated with a 2% gelatin solution (the gelatin was obtained from Becton Dickinson Labware, Catalog #11868). The wells were filled with the gelatin solution which had been heated to 50 C. and incubated for 3 minutes. Then the solution was removed and the wells were allowed to air dry. Following drying, the wells were thoroughly rinsed with ddH2O followed by two rinses with PBS. The plates were again allowed to dry; thereafter they were stored at −20 C. until use. Matrigel was thawed on ice and then added to one of the wells of a gelatin-coated plate (between 800 μl and 1 ml of Matrigel was added to a well of a 24-well plate). The plate was placed in a bucket of ice in a 4 C. room on an orbital shaker where the Matrigel was incubated in the well for two hours (although overnight incubation can be used). Following the incubation, the Matrigel was moved from the first well to a second well and then incubated for two hours under the same conditions. This process was repeated until the Matrigel had been incubated on all eight wells of the gelatin-coated plate.
Following the depletion of the Matrigel, it was collected in Eppendorf tubes. […]

[5] = tested on: normal, neonatal fibroblasts; experiment: Invasion of gelatin- and antibody-depleted Matrigel by fibroblasts; type: cell-based; settings: Matrigel depleted by gelatin and antibody panning, FIG. 4
Protocol: Anti-fibronectin antibody-coated wells: Wells of a 24-well plate were coated with an anti-fibronectin antibody. A mouse monoclonal antibody to human fibronectin was obtained from Oncogene Science (Catalog #CP13). Each well was incubated with 1 ml of antibody at a concentration of 30 μl/ml for 2 hours at room temperature. Each well was then incubated with a solution of 3% BSA in PBS for 2 hours at room temperature. Following the two incubation periods, the wells were thoroughly washed with PBS and stored at −20 C. until use.
Depleting Matrigel of Fibronectin: Matrigel was panned over eight gelatin-coated wells (as described above in Example 2) to remove most of the fibronectin and its fragments. Thereafter, the Matrigel was placed in the antibody-coated wells to remove any remaining fragments of fibronectin which contain the cell-binding domain but not the gelatin-binding domain. The Matrigel was incubated in an ice bucket on an orbital shaker at 4 C. for 2 hours. Once the Matrigel was depleted, it was collected in Eppendorf tubes. The firbonectin-depleted Matrigel was plated on a 48-well plate (150 μl/well), sterilized under a UV light for 10 minutes and incubated at 37 C. overnight. The Matrigel formed a gel and the following day, cells were added to the wells. […]

[6] = tested on: neonatal, human fibroblasts; experiment: Fibroblast invasion of SU-ECM basement membranes; type: cell-based; settings: for stimulation of fibroblast invasion of basement membranes in vitro: in the presence of serum or under serum-free conditions
Protocol: as §1
as §2, with “If some circumstances, invasion assays were fixed in phosphate-buffered saline (PBS) with 2% formaldehyde for 5 minutes at room temperature, then rinsed into PBS.” left out
as §3, with “A cell was judged to have invaded if it was located on an interior surface below the focal plane passing through the upper surface of the SU-ECM, but above the focal plane passing through its lower surface.” left out
as §4, with “Thus, an invasion frequency of 1 denotes invasion by 100% of the cells in contact with basement membranes.” left out, “calculated. […]” for “calculated.”

keratinocytes = experiment: Keratinocyte invasion of serum-free SU-ECM; type: cell-based
Excerpt: Since, during wound reepithelialization, keratinocytes migrate through the connective tissue of the provisional matrix to “wall off” portions of the wound, as well as through the adjacent stroma, it is not surprising that they are also stimulated to migrate through the matrix of SU-ECM invasion substrates by the PHSRN (SEQ ID NO:1) sequence. […] Recruitment of fibroblasts or monocytes/macrophages whose paracrine, regulatory effects on a variety of neighboring cells are required for the early stages of wound healing is contemplated as a highly efficient and effective way to stimulate the cascade of regulatory interactions involved in wound healing because these cells will secrete the active factors or cytokines in the correct temporal sequences and spatial locations to ensure their optimal activities. Because it efficiently induces keratinocyte migration through the extracellular matrix in vitro, the PHSRN (SEQ ID NO:1) peptide is also likely to stimulate wound reepithelialization directly. The use of the PHSRN (SEQ ID NO:1) peptide or structurally related molecules according to the present invention is to stimulate the entry of cells such as fibroblasts and monocyte/macrophages into the provisional matrix of a wound, so that the entering cells themselves secrete the factors and cytokines active in inducing or potentiating wound healing. […]

Substance | inhibition of serum-induced invasion of SU-ECM ([1]; higher concentrations) | inhibition of serum-induced invasion of SU-ECM ([1]; lower concentrations) | induction of invasion of the SU-ECM substrate [2] | induction of invasion of the SU-ECM substrate [3] | restoration of DU-145 invasiveness on depleted Matrigel [4] | induction of fibroblast invasiveness on depleted Matrigel [5] | stimulation of fibroblast invasion of basement membranes in vitro [6] | induction of fibroblast invasion of SU-ECM ([6]; serum-free SU-ECM) | stimulation of keratinocyte invasion (keratinocytes)
PHS(hC)N: homo-cysteine containing peptide (PHS[hCys]N) | completely inhibits invasion | substantially inhibits invasion | – | – | – | – | – | – | –
Pro-His-Ser-Arg-Asn (PHSRN) | – | – | induced to invade | induced to invade | sufficient to restore the full DU-145 invasiveness | invasiveness of the fibroblasts could be induced | sufficient to stimulate fibroblast invasion | induced | stimulate keratinocyte invasion
intact plasma fibronectin: purified bovine plasma fibronectin (Sigma); a significant component of serum | – | – | induced to invade | induced to invade | – | – | fails to stimulate fibroblast invasion | – | –

Source: patent US6472369B1, “Anticancer compounds and methods” (The Regents of the University of Michigan, priority 1996, dated 2002)
